Source: patent publication US8513232B2, “Substituted spirocyclic piperidine derivatives as histamine-3 (H3) receptor ligands” (Cephalon, Inc., priority 2008, dated 2013)
Where two headings read alike, the source gives them in different places.

How the values were obtained:
human H3 receptor = target: T1, human H3 receptor (Homo sapiens, UniProt Q9Y5N1); assay: Human H3 radioligand binding ([3H]-N-alpha-methylhistamine, SPA); settings: Table C; human H3 binding; read-out: Human H3 Ki
T1 construct: expressed in transfected cells
T1 sequence (Q9Y5N1 whole entry): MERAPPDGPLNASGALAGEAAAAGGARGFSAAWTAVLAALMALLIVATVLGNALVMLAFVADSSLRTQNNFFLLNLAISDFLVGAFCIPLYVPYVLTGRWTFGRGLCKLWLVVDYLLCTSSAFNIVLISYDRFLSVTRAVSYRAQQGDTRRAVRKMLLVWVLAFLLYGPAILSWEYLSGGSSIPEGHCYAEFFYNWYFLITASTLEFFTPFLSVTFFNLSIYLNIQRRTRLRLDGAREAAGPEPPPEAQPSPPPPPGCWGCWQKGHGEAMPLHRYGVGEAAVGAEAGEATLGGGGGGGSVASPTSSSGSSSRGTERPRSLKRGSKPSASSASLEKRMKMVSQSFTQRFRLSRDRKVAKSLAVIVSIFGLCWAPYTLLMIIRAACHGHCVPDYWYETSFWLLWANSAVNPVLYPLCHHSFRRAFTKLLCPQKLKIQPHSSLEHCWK
Method in brief: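 SPA competition binding on membranes from CHO cells stably expressing human H3 receptor (10 μg protein/well) with ~1 nM [3H]-N-alpha-methylhistamine and compound at 0.01 nM-30 μM. Incubation 4 h at room temperature in 50 mM Tris-HCl pH 7.4, 5 mM MgCl2, 0.1% BSA; non-specific binding defined with 10 μM clobenpropit.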

[1] = target: T2, rat histamine H3 receptor (Rattus norvegicus, UniProt Q9QYN8); assay: Rat H3 radioligand binding ([3H]-N-alpha-methylhistamine, SPA); settings: Table C, rat H3 binding, read-out: Rat H3 Ki
T2 construct: encoding the entire 445-amino-acid rat histamine H3 receptor; expressed in transfected cells; membrane preparation
T2 sequence (Q9QYN8 whole entry): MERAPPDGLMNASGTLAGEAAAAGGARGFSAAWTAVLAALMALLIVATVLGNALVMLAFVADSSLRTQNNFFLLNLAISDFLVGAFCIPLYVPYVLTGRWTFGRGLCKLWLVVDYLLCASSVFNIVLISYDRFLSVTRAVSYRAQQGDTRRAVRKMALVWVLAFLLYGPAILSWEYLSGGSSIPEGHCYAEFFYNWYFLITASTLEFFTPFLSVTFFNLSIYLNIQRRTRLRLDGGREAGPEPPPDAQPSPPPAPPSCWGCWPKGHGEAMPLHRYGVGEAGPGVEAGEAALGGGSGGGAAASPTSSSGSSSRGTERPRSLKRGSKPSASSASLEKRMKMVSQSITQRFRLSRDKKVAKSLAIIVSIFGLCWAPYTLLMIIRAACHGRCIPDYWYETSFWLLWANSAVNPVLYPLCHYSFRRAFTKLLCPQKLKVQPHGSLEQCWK
Method in brief: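 Membranes from CHO-A3 cells stably expressing full-length rat H3 receptor (10 μg protein/well) incubated 4 h at room temperature, protected from light, with ~1 nM [3H]-N-alpha-methylhistamine and compound (0.01 nM-30 μM) in 50 mM Tris HCl pH 7.4, 5 mM MgCl2, 0.1% BSA. Binding read by SPA; 10 μM clobenpropit defined non-specific binding.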

Compound	Ki (human H3 receptor)	melting point	Ki [1]	Ki ([1]; given as numeric bound)
O=C(C1CC1)N1CCN(c2ccc3c(c2)CCC2(CCN(C4CCC4)CC2)O3)CC1 [Example 376]	< 200 nM	169 to 171 °C	< 200 nM	
c1cc2c(cc1N1CCNCC1)CCC1(CCN(C3CCC3)CC1)O2 [Example 377]	< 200 nM	116 to 118 °C	< 200 nM	
CC(C)C(=O)N1CCN(c2ccc3c(c2)CCC2(CCN(C4CCC4)CC2)O3)CC1 [Example 381]	< 200 nM	173 to 175 °C	< 200 nM	
COc1cccc(N2CCN(c3ccc4c(c3)CCC3(CCN(C5CCC5)CC3)O4)CC2)n1 [Example 382]	< 200 nM	243 to 245 °C	< 200 nM	
CS(=O)(=O)c1ccc(N2CCN(c3ccc4c(c3)CCC3(CCN(C5CCC5)CC3)O4)CC2)nc1 [Example 383]	< 200 nM	258 to 260 °C	< 200 nM	
CCOC(=O)C1CCN(c2ccc3c(c2)CCC2(CCN(C4CCC4)CC2)O3)CC1 [Example 384]	< 200 nM	256 to 258 °C	< 200 nM	
COC(=O)c1ccc(N2CCN(c3ccc4c(c3)CCC3(CCN(C5CCC5)CC3)O4)CC2)nc1 [Example 385]	< 200 nM	202 to 203 °C	< 200 nM	
O=C(N1CCOCC1)N1CCN(c2ccc3c(c2)CCC2(CCN(C4CCC4)CC2)O3)CC1 [Example 386]	< 200 nM	292 to 294 °C	< 200 nM	
O=C(c1ccco1)N1CCN(c2ccc3c(c2)CCC2(CCN(C4CCC4)CC2)O3)CC1 [Example 387]	< 200 nM	133 to 135 °C	< 200 nM	
O=C(N1CCCC1)N1CCN(c2ccc3c(c2)CCC2(CCN(C4CCC4)CC2)O3)CC1 [Example 388]	< 200 nM	165 to 167 °C	< 200 nM	
Clc1ccc(N2CCN(c3ccc4c(c3)CCC3(CCN(C5CCC5)CC3)O4)CC2)nn1 [Example 389]	< 200 nM	229 to 231 °C	< 200 nM	
NC(=O)c1ccc(Oc2ccc3c(c2)CCC2(CCN(C4CCC4)CC2)O3)nc1 [Example 390]	< 200 nM	191 to 193 °C	< 200 nM	
CCOC1CCN(c2ccc3c(c2)CCC2(CCN(C4CCC4)CC2)O3)CC1 [Example 391]	< 200 nM	285 to 290 °C	< 200 nM	
CN(C)C(=O)N1CCN(c2ccc3c(c2)CCC2(CCN(C4CCC4)CC2)O3)CC1 [Example 392]	< 200 nM	272 to 274 °C	< 200 nM	
c1cc2c(cc1N1CCCCC1)CCC1(CCN(C3CCC3)CC1)O2 [Example 393]	< 200 nM	> 280 °C (dec.)	< 200 nM	
CCN(CC)C(=O)N1CCN(c2ccc3c(c2)CCC2(CCN(C4CCC4)CC2)O3)CC1 [Example 394]	< 200 nM	272 to 274 °C	< 200 nM	
CC(=O)N1CCCN(c2ccc3c(c2)CCC2(CCN(C4CCC4)CC2)O3)CC1 [Example 395]	< 200 nM	276 to 278 °C	< 200 nM	
CNC(=O)C1CCN(c2ccc3c(c2)CCC2(CCN(C4CCC4)CC2)O3)CC1 [Example 396]	< 200 nM	264 to 267 °C	< 200 nM	
FC1CCN(c2ccc3c(c2)CCC2(CCN(C4CCC4)CC2)O3)CC1 [Example 397]	< 200 nM	> 265 °C (dec.)	< 200 nM	
c1cc2c(cc1N1CCC3(CC1)OCCO3)CCC1(CCN(C3CCC3)CC1)O2 [Example 398]	< 200 nM	135 to 137 °C	< 200 nM	
O=C1CCN(c2ccc3c(c2)CCC2(CCN(C4CCC4)CC2)O3)CC1 [Example 399]	< 200 nM	> 247 °C (dec.)	< 200 nM	
c1cnc(Oc2ccc3c(c2)CCC2(CCN(C4CCC4)CC2)O3)nc1 [Example 400]	200 to 1000 nM	258 to 260 °C		> 300 nM
CNC(=O)c1ccc(Oc2ccc3c(c2)CCC2(CCN(C4CCC4)CC2)O3)nc1 [Example 401]	< 200 nM	245 to 247 °C	< 200 nM	
c1cc2c(cc1N1CCOCC1)CCC1(CCN(C3CCC3)CC1)O2 [Example 403]	< 200 nM	> 285 °C (dec.)	< 200 nM	
FC1(F)CCN(c2ccc3c(c2)CCC2(CCN(C4CCC4)CC2)O3)CC1 [Example 404]	< 200 nM	> 283 °C (dec.)	< 200 nM	

Compound	Ki (human H3 receptor)	melting point	Ki [1]	Ki ([1]; given as numeric bound)
OC1CCN(c2ccc3c(c2)CCC2(CCN(C4CCC4)CC2)O3)CC1 [Example 405]	< 200 nM	> 265 °C (dec.)	< 200 nM	
O=S1(=O)CCN(c2ccc3c(c2)CCC2(CCN(C4CCC4)CC2)O3)CC1 [Example 406]	< 200 nM	> 285 °C (dec.)	< 200 nM	
CN(C)C(=O)c1ccc(Oc2ccc3c(c2)CCC2(CCN(C4CCC4)CC2)O3)nc1 [Example 407]	< 200 nM	267 to 269 °C	200 to 1000 nM	
CNC(=O)c1ccc(N2CCN(c3ccc4c(c3)CCC3(CCN(C5CCC5)CC3)O4)CC2)nc1 [Example 409]	< 200 nM	297 to 299 °C	< 200 nM	
c1ccc(OC2CCN(c3ccc4c(c3)CCC3(CCN(C5CCC5)CC3)O4)CC2)nc1 [Example 412]	< 200 nM	240 to 245 °C	< 200 nM	
FC1(F)CCN(c2ccc3c(c2)CCC2(CCN(C4CCC4)CC2)O3)C1 [Example 413]	< 200 nM	> 275 °C (dec.)	< 200 nM	
F[C@@H]1CCN(c2ccc3c(c2)CCC2(CCN(C4CCC4)CC2)O3)C1 [Example 414]	< 200 nM	275 to 280 °C	< 200 nM	
c1cnc(Oc2ccc3c(c2)CCC2(CCN(C4CCC4)CC2)O3)cn1 [Example 415]	< 200 nM	256 to 258 °C	< 200 nM	
COCCNC(=O)c1ccc(Oc2ccc3c(c2)CCC2(CCN(C4CCC4)CC2)O3)nc1 [Example 416]	< 200 nM	235 to 237 °C	< 200 nM	
CC(C)(C)OC(=O)N1CCC(Oc2ccc3c(c2)CCC2(CCN(C4CCC4)CC2)O3)CC1 [Example 417, 1′-cyclobutyl-6-(piperidine-1-carboxylic acid tert-butyl ester-4-yloxy)-3,4-dihydro spiro-[2H-benzopyran-2,4′-piperidine]]	< 200 nM	118 to 120 °C	< 200 nM	
O=C(C1CCN(c2ccc3c(c2)CCC2(CCN(C4CCC4)CC2)O3)CC1)N1CCCC1 [Example 418]	< 200 nM	290 to 292 °C	< 200 nM	
O=c1ccc(N2CCN(c3ccc4c(c3)CCC3(CCN(C5CCC5)CC3)O4)CC2)n[nH]1 [Example 419]	< 200 nM	278 to 280 °C	< 200 nM	
c1cc2c(cc1N1CCCC1)CCC1(CCN(C3CCC3)CC1)O2 [Example 420]	< 200 nM	> 275 °C (dec.)	< 200 nM	
O=S1(=O)CCN(c2ccc3c(c2)COC2(CCN(C4CCC4)CC2)O3)CC1 [Example 421]	< 200 nM	157 to 158 °C	< 200 nM	
FC1(F)CCN(c2ccc3c(c2)COC2(CCN(C4CCC4)CC2)O3)CC1 [Example 422]	< 200 nM	> 250 °C (dec.)	200 to 1000 nM	
FC1(F)CCN(c2ccc3c(c2)COC2(CCN(C4CCC4)CC2)O3)C1 [Example 423]	< 200 nM	217 to 221 °C	< 200 nM	
c1cc2c(cc1N1CCC(OCC3CC3)CC1)CCC1(CCN(C3CCC3)CC1)O2 [Example 424]	< 200 nM	280 to 283 °C	< 200 nM	
CC(=O)N1CCC(Oc2ccc3c(c2)CCC2(CCN(C4CCC4)CC2)O3)CC1 [Example 426]	< 200 nM	227 to 229 °C	< 200 nM	
CC(C)C(=O)N1CCC(Oc2ccc3c(c2)CCC2(CCN(C4CCC4)CC2)O3)CC1 [Example 427]	< 200 nM	239 to 241 °C	< 200 nM	
O=c1ccc(-c2ccc3c(c2)CCC2(CCN(C4CCC4)CC2)O3)c[nH]1 [Example 429]	< 200 nM	260 to 262 °C	< 200 nM	
Cn1cc2c(n1)CCN(c1ccc3c(c1)CCC1(CCN(C4CCC4)CC1)O3)C2 [Example 430]	< 200 nM	132 to 134 °C	< 200 nM	
CCOC1CCN(c2ccc3c(c2)COC2(CCN(C4CCC4)CC2)O3)CC1 [Example 431]	< 200 nM	266 to 269 °C	< 200 nM	
c1ccc(OC2CCN(c3ccc4c(c3)CCC3(CCN(C5CCC5)CC3)O4)CC2)cc1 [Example 432]	< 200 nM	> 265 °C (dec.)	< 200 nM	
c1cc2c(cc1OC1CCOCC1)CCC1(CCN(C3CCC3)CC1)O2 [Example 433]	< 200 nM	252 to 254 °C	< 200 nM	
O=C(C1CCN(c2ccc3c(c2)CCC2(CCN(C4CCC4)CC2)O3)CC1)N1CCOCC1 [Example 434]	< 200 nM	165 to 167 °C	< 200 nM	
